According to EP1388586A2, “Identification of broadly reactive DR restricted epitopes” (priority 1998, dated 1999):
Read-outs that look alike come from different tables or passages of the source. Square brackets hold non-standard residues; d marks the D form. Ends that are not written are not given here. Peptide text beside a SMILES is read from it.

Legend:
DRB1*1101 (DR5w11) = target: T1, DRB1*1101 (DR5w11) (Homo sapiens, UniProt P01903+P01911, A100R/A169T/A87E/I96F/K41T/L162R/M171V/P40S/Q125H/Q178H/Q39Y/Q99D/R42S/S66Y/T262R/V115G/W38E); test: Class II peptide-binding assay, DR5w11;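 also: competition by unlabeled test peptide against iodinated probe peptide binding to affinity-purified HLA-DR, class II amount titrated beforehand, half-maximal inhibitory concentration read as approximate Kd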
T1 construct: used as sources of human HLA class II molecules; endogenous in cells; host or cells: SWEIG (EBV-transformed homozygous B cell line)

DRB1*0101 (DR1) = target: T2, DRB1*0101 (DR1) (Homo sapiens, UniProt P01903+P01911, A100R/D57E/F55L/F60I/F76Y/I96L/L162R/M171V/P40L/Q125E/R42F/V115G/Y59C); test: Class II peptide-binding assay, DR1;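 also: competition assay: unlabeled test peptides inhibit binding of a radiolabeled probe peptide to purified DR, with half-maximal inhibition taken as an approximate dissociation constant Kd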
T2 construct: used as sources of human HLA class II molecules; endogenous in cells; host or cells: LG2 (EBV-transformed homozygous B cell line)

DRB1*0701 (DR7) = DRB1*0701 (DR7) (Homo sapiens, UniProt P01903+P01911, A100R/A102G/A103Q/D57E/D86V/E43K/F76Y/K127E/L162R/M171V/P40G/Q125H/Q99D/R33Q/R42Y/R54Q/S133A/S66F/T210M/V115G/Y107V/Y59L/Y89S); test: Class II peptide-binding assay, DR7;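 also: unlabeled peptides compete with an iodinated probe peptide for binding to affinity-purified HLA-DR at neutral pH, DR amount titered to bind a small tracer fraction, IC50 approximating Kd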
Protocol: Class II peptide-binding assays. […] These assays were chosen as to be representative of the most common DR alleles.
Radiolabeled peptides were iodinated using the chloramine-T method. […] In appropriate stoichiometric conditions, the IC50 of an unlabeled test peptide to the purified DR is a reasonable approximation of the affinity of interaction (Kd). Peptides were tested in two to four completely independent experiments. […] Final detergent concentration in the incubation mixture was 0.05% Nonidet P-40. Assays were performed at pH 7.0 with the exception of DR3, which was performed at pH 4.5, and DRw53, which was performed at pH 5.0.
All subsequent inhibition and direct binding assays were the performed using these class II concentrations.

DRB5*0101 (DR2w2a) = target: T3, DRB5*0101 (DR2w2a) (Homo sapiens, UniProt P01903+Q30154); test: Class II peptide-binding assay, DR2w2a (DR2w2B2);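 also: competitive binding assay: unlabeled peptide inhibiting binding of a radiolabeled probe peptide to purified DR molecules at pH 7.0, IC50 approximating Kd, lower means stronger binding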
T3 construct: used as sources of human HLA class II molecules; endogenous in cells; host or cells: GM3107 (EBV-transformed homozygous B cell line)

DRB10404 (DR4w14) = target: T4, DRB10404 (DR4w14) (Homo sapiens, UniProt P01903+P01911, A100R/A169T/F76Y/I96L/K127E/L162R/M171V/N62H/P40V/Q125Y/R42H/S133A/S149N/S66Y/V209L/W38E); test: Class II peptide-binding assay, DR4w14;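 also: unlabeled peptides compete with a radiolabeled probe for binding to affinity-purified HLA-DR, neutral pH, class II amount titrated to bind a small fraction of label, IC50 approximates Kd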
T4 construct: used as sources of human HLA class II molecules; endogenous in cells; host or cells: BIN40 (EBV-transformed homozygous B cell line)

DRB1*0401 (DR4w4) = target: T5, DRB1*0401 (DR4w4) (Homo sapiens, UniProt P01903+P01911, A100K/A169T/F76Y/I96L/K127E/L162R/M171V/N62H/P40V/Q125Y/R42H/S133A/S149N/S66Y/V115G/V209L/W38E); test: Class II peptide-binding assay, DR4w4;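 also: unlabeled test peptides compete with a radiolabeled probe peptide for binding to affinity-purified HLA-DR, with DR amount titrated to capture a small fraction of label, IC50 approximating Kd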
T5 construct: used as sources of human HLA class II molecules; endogenous in cells; host or cells: PREISS (EBV-transformed homozygous B cell line)

[1] = read-out: DR5w11 nM (In IC50 Format), purified HLA DR5w11
[2] = read-out: DR1 nM (In IC50 Format), purified HLA DR1
[3] = read-out: DR7 nM (In IC50 Format), purified HLA DR7
[4] = read-out: DR2w2B2 nM (In IC50 Format), purified HLA DR2w2β2
[5] = read-out: DR4w14 nM (In IC50 Format), purified HLA DR4w14
[6] = read-out: DR4w4 nM (In IC50 Format), purified HLA DR4w4
[7] = read-out: DR5w11 nM, Table VIII, In IC50 Format
[8] = read-out: DR2w2B2 nM, Table VIII, In IC50 Format
[9] = read-out: DR4w14 nM, Table VIII, In IC50 Format
[10] = read-out: DR4w4 nM, Table VIII, In IC50 Format
[11] = read-out: DR1 nM, Table VIII, In IC50 Format

T1 sequence (P01903 26-254, other chains not shown): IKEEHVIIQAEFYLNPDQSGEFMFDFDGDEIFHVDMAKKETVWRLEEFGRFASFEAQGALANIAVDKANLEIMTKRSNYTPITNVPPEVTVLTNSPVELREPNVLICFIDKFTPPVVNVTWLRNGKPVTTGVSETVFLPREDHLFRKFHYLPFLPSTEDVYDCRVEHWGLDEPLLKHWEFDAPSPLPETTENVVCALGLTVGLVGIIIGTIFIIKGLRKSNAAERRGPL

Row | Compound | IC50 (DRB1*1101 (DR5w11); [1]) [nM] | IC50 (DRB1*0101 (DR1); [2]) [nM] | IC50 (DRB1*0701 (DR7); [3]) [µM] | IC50 (DRB5*0101 (DR2w2a); [4]) [nM] | IC50 (DRB10404 (DR4w14); [5]) [nM] | IC50 (DRB1*0401 (DR4w4); [6]) [nM] | further results
1 | YARFQAQTTLKAKT-NH2 [Peptide 717.55] | 11.1 | 2.4 | 5 | 90.9 | 4.3 | 4.5 | –
2 | YARFQSNTTLKAKT-NH2 [Peptide 717.47] | 18.2 | 41.7 | 4.17 | 444 | 14.7 | 3.8 | –
3 | YARYQSQTTLKAKT-NH2 [Peptide 717.42] | 14.3 | 7.8 | – | 364 | 66.7 | 3.1 | –
4 | QPDVRPQPPSPREGP [Peptide 39.0280] | – | – | – | – | – | – | IC50 (DRB1*0101 (DR1); Table VIII, page 2, read-out: In IC50 Format DR1): 7140 nM
5 | LMAMGITDVFSSSANLSGI [Peptide 705.08] | 2500 | 417 | 0.403 | – | – | 14.1 | –
6 | CC(C)C[C@H](NC(=O)[C@@H](NC(=O)[C@@H](NC(=O)[C@H](CCC(N)=O)NC(=O)[C@H](CCCNC(=N)N)NC(=O)[C@H](CCC(N)=O)NC(=O)[C@@H](N)Cc1ccccc1)[C@@H](C)O)[C@@H](C)O)C(=O)N[C@@H](CCCCN)C(=O)N[C@@H](C)C(=O)N[C@@H](C)C(=O)N[C@H](C)C(N)=O [Peptide 781.06] (H-FQRQTTLKAA[dA]-NH2) | – | 19.2 | – | – | 13.9 | 2.4 | –
7 | YARFQSQTPLKAKT-NH2 [Peptide 717.37] | 8 | 2.5 | – | 64.5 | 67.5 | 9 | –
8 | CC[C@H](C)[C@H](NC(=O)[C@@H](NC(=O)[C@H](CC(C)C)NC(=O)[C@@H](NC(=O)[C@@H]1CCCN1C(=O)[C@H](CCCNC(=N)N)NC(=O)[C@@H](N)CCCNC(=N)N)[C@@H](C)CC)[C@@H](C)O)C(=O)N[C@H](C(=O)N[C@H](C(=O)N[C@@H](CC(C)C)C(=O)N[C@@H](CCC(=O)O)C(=O)N[C@@H](CC(=O)O)C(=O)N[C@@H](CO)C(=O)N[C@@H](CO)C(=O)NCC(=O)O)[C@@H](C)O)[C@@H](C)CC [Peptide 39.0310] | – | – | – | – | – | – | IC50 (DRB1*0701 (DR7); read-out: In IC50 Format DR7 nM, Table VIII, page 2): 10.9 µM
9 | CC(C)C[C@H](NC(=O)[C@@H](NC(=O)[C@@H](NC(=O)[C@H](CCC(N)=O)NC(=O)[C@H](CO)NC(=O)[C@H](CCC(N)=O)NC(=O)[C@H](Cc1ccccc1)NC(=O)[C@H](C)NC(=O)[C@H](C)NC(=O)[C@H](N)Cc1ccc(O)cc1)[C@@H](C)O)[C@@H](C)O)C(=O)N[C@@H](CCCCN)C(=O)N[C@@H](C)C(=O)N[C@@H](CCCCN)C(=O)N[C@@H](C(N)=O)[C@H](C)O [Peptide 858.04] (H-[dY]AAFQSQTTLKAK[dT]-NH2) | – | – | – | – | – | – | IC50 (DRB1*1101 (DR5w11); [7]): 19.6 nM; IC50 (DRB1*0701 (DR7); read-out: DR7 nM, Table VIII, In IC50 Format): 25 µM; IC50 (DRB5*0101 (DR2w2a); [8]): 141 nM; IC50 (DRB10404 (DR4w14); [9]): 15.6 nM; IC50 (DRB1*0401 (DR4w4); [10]): 4.5 nM
10 | CC(C)C[C@H](NC(=O)[C@@H](NC(=O)[C@@H](NC(=O)[C@H](CCC(N)=O)NC(=O)[C@H](CCCCN)NC(=O)[C@H](CC(=O)O)NC(=O)[C@H](Cc1ccccc1)NC(=O)[C@@H](CCCNC(=N)N)NC(=O)[C@H](C)NC(=O)[C@H](N)Cc1ccc(O)cc1)[C@@H](C)O)[C@@H](C)O)C(=O)N[C@@H](CCCCN)C(=O)N[C@@H](C)C(=O)N[C@@H](C)C(=O)N[C@H](C)C(=O)O [Peptide 781.19] (H-[dY]A[dR]FDKQTTLKAA[dA]-OH) | 47.5 | 60.2 | – | 3330 | 96.6 | 8.1 | –
11 | CC(C)C[C@H](NC(=O)[C@@H](NC(=O)[C@@H](NC(=O)[C@H](CCC(N)=O)NC(=O)[C@H](CCCNC(=N)N)NC(=O)[C@H](CCC(N)=O)NC(=O)[C@H](Cc1ccccc1)NC(=O)[C@H](CCCNC(=N)N)NC(=O)[C@H](C)NC(=O)[C@H](N)Cc1ccc(O)cc1)[C@@H](C)O)[C@@H](C)O)C(=O)N[C@@H](CCCCN)C(=O)N[C@@H](C)C(=O)N[C@@H](C)C(=O)N[C@H](C)C(N)=O [Peptide 781.09] (H-[dY]ARFQRQTTLKAA[dA]-NH2) | 7.4 | 2.8 | – | 37.7 | 7.4 | 2 | –
12 | YARFQSQTTLEAKT-NH2 [Peptide 717.22] | 29.4 | 7.9 | 2.78 | 870 | – | 11.8 | –
13 | CC(C)C[C@H](NC(=O)[C@@H](NC(=O)[C@@H](NC(=O)[C@H](CCC(N)=O)NC(=O)[C@H](CO)NC(=O)[C@H](CCC(N)=O)NC(=O)[C@H](Cc1ccccc1)NC(=O)[C@H](CCCCN)NC(=O)[C@H](C)NC(=O)[C@H](N)Cc1ccc(O)cc1)[C@@H](C)O)[C@@H](C)O)C(=O)N[C@@H](CCCCN)C(=O)N[C@@H](C)C(=O)N[C@@H](CCCCN)C(=O)N[C@@H](C(N)=O)[C@H](C)O [Peptide 858.02] (H-[dY]AKFQSQTTLKAK[dT]-NH2) | – | – | – | – | – | – | IC50 (DRB1*1101 (DR5w11); [7]): 16.3 nM; IC50 (DRB1*0101 (DR1); [11]): 9 nM; IC50 (DRB5*0101 (DR2w2a); [8]): 32.4 nM; IC50 (DRB10404 (DR4w14); [9]): 17.9 nM; IC50 (DRB1*0401 (DR4w4); [10]): 6.4 nM
14 | KSNTATSATQRLANSLVH [Peptide 735.01] | 1330 | 313 | 12.5 | – | 352 | 441 | –
15 | INSWVESQTNGIIR [Peptide 608.02] | – | – | – | – | – | – | IC50 (DRB1*0101 (DR1); read-out: In IC50 Format DR1, Table VIII): 556 nM; IC50 (DRB1*0701 (DR7); read-out: In IC50 Format DR7, Table VIII): 0.0147 µM; IC50 (DRB5*0101 (DR2w2a); read-out: In IC50 Format DR2w2β2, Table VIII): > 10000 nM; IC50 (DRB10404 (DR4w14); read-out: In IC50 Format DR4w14, Table VIII): 16700 nM; IC50 (DRB1*0401 (DR4w4); read-out: In IC50 Format DR4w4, Table VIII): 375 nM
16 | C[C@H](NC(=O)[C@H](C)NC(=O)[C@H](C)NC(=O)[C@H](C)NC(=O)[C@H](Cc1ccc(O)cc1)NC(=O)[C@H](C)NC(=O)[C@@H](C)N)C(=O)N[C@@H](C)C(=O)N[C@@H](C)C(=O)N[C@@H](CCCCN)C(=O)N[C@@H](C)C(=O)N[C@@H](C)C(=O)N[C@H](C)C(N)=O [Peptide 762.01] (H-[dA]AYAAAAAAKAA[dA]-NH2) | 46.8 | 1.7 | 1.67 | 27.4 | – | 7.1 | –
17 | CC(C)C[C@H](NC(=O)[C@@H](NC(=O)[C@@H](NC(=O)[C@H](CCC(N)=O)NC(=O)[C@H](CO)NC(=O)[C@H](CCC(N)=O)NC(=O)[C@H](Cc1ccccc1)NC(=O)[C@H](CCCNC(=N)N)NC(=O)[C@H](C)NC(=O)[C@H](N)Cc1ccc(O)cc1)[C@@H](C)O)[C@@H](C)O)C(=O)N[C@@H](CCCCN)C(=O)N[C@@H](C)C(=O)N[C@@H](CCCCN)C(=O)N[C@@H](C(N)=O)[C@H](C)O [Peptide 858.06] (H-[dY]ARFQSQTTLKAK[dT]-NH2) | – | – | – | – | – | – | IC50 (DRB1*1101 (DR5w11); [7]): 18.2 nM; IC50 (DRB1*0101 (DR1); [11]): 4.5 nM; IC50 (DRB5*0101 (DR2w2a); [8]): 64 nM; IC50 (DRB1*0401 (DR4w4); [10]): 5 nM
18 | YARFQSQTTLKAET-NH2 [Peptide 717.26] | – | 35.7 | 4.17 | – | 20 | 18 | –
19 | YARFQRQTTLKIAT [Peptide 716.01] | – | 2.9 | 0.0427 | 95.2 | 111 | 16.7 | –
20 | CC[C@H](C)[C@H](NC(=O)[C@H](CCSC)NC(=O)[C@H](Cc1c[nH]c2ccccc12)NC(=O)[C@H](CS)NC(=O)[C@H](CCCCN)NC(=O)[C@@H](NC(=O)[C@H](CCSC)NC(=O)[C@@H](NC(=O)[C@H](CCSC)NC(=O)[C@H](Cc1ccc(O)cc1)NC(=O)[C@@H](NC(=O)[C@@H](N)CC(=O)O)C(C)C)[C@@H](C)CC)C(C)C)C(=O)N[C@@H](CC(=O)O)C(=O)N[C@@H](CO)C(=O)N[C@@H](CCC(=O)O)C(=O)O [Peptide 39.0277] | – | – | – | – | – | – | IC50 (DRB1*1101 (DR5w11); Table VIII, page 2, read-out: In IC50 Format DR5w11 nM): 909 nM; IC50 (DRB1*0401 (DR4w4); Table VIII, page 2, read-out: In IC50 Format DR4w4 nM): 790 nM
21 | YARFQFQTTLKAKT-NH2 [Peptide 717.46] | 3.7 | 4.5 | 4.17 | 40 | 2.6 | – | –
22 | YARFQSETTEKAKT-NH2 [Peptide 717.07] | – | – | – | 5000 | 806 | 64.3 | –
23 | ASQKRPSQRSKYLATAST [Peptide 765.011] | 4440 | 313 | 0.961 | 2500 | – | 321 | –
